Measured values published in patent US10391071B2, “Compositions comprising valerian extracts” (Cutech SRL, priority 2015, dated 2019).

Legend:
[1] = tested on: human sebaceous glands (hSGs); assay: Sebum content in ex-vivo cultured human sebaceous glands (hSGs), lipids normalized to proteins; format: cell-based
Source text: The following examples are intended to show the modulation of sebum production exerted by the experimental preparations on human sebaceous glands (hSGs) microdissected and cultivated up to day 6. At the end of the culture time, the sebum is extracted and quantified from each experimental group of hSGs and then normalized by the proteins extracted from the residual hSG material (mg lipids/mg proteins). As a result, the biological activity of the tested compounds is inferred by comparing the lipids/proteins ratio of the treated glands with that of the control group. A detailed methodology is reported in EP14179936.1 (Cutech Srl) The adopted experimental model is based on the cultivation of ex-vivo hSGs at constant concentrations of valerian extracts or purified derivatives. This experimental condition is not reproducible in vivo since both topical and oral administration produce fluctuating concentrations, depending on the frequency and composition of the treatment. […] The control group was cultured in standard medium, whereas a 5 μM Capsaicin treatment was included in the experimental design as positive control. Capsaicin is an active component of chili peppers suitable to inhibit sebogenesis [Tóth et al., 2009, J. Invest. Derm. 129: 329-339]. The effect of the treatment was evaluated by assessing the amounts of normalized lipids obtained from the treated groups, i.e. the quantitive ratio beween sebum lipids and proteins extracted from each group of hSGs (mg of lipids/mg of proteins), with respect to the value obtained from the control group. The results were expressed in percentage values, assuming the normalized lipids obtained from the control group as reference value (100%).

human skin subcutis = assay: Normalized total lipids in subcutis of ex-vivo cultured full-thickness human skin; format: cell-based; conditions: for Total lipid content in skin subcutis samples, % ratio of the control group performance (Average): Table 9, abdominal skin, six days of organ culture (five of treatment)
Source text: The reported examples from 19 to 23 are intended to show the modulation of adipocyte lipid content exerted by the experimental preparations on human skin subcutis. Full-thickness ex-vivo human skin samples, including the subcutis, were ex-vivo cultured and treated with compounds obtained from valerian extract, i.e. valerenic acid (VA) and pentanoic acid (AP), in order to evaluate their activity on the lipid metabolism.
The responses of the treated tissues, in comparison to the untreated group, were evaluated after 6 days of culture, by isolating the subcutis of each skin sample and then estimating its normalized content in total lipids.
Cylindrical pieces (7 mm in diameter) of full thickness human skin were excised from an abdominal skin sample paying attention to preserve the subcutis. These organ samples were seeded in 24-well plates at a density of 1 sample/well with 500 μl of culture medium, and cultured up to day 6. The samples submitted to experimental treatments received medium supplemented with VA at 0.5, 5 and 50 μM or PA at 0.2 and 2 μM. After the first day of culture, the samples were arranged in experimental groups including 4 samples each one. The control group received modified William E medium, while the samples submitted to experimental treatments received the same medium supplemented with the extracts. The culture medium was renewed every other day. After six days of organ culture (five of treatment), the subcutis of each skin sample was separated from the dermis and its total content of lipids and proteins was quantified. […] As a result, when lipogenesis is stimulated, an increase in the “total lipids/total proteins ratio”, hereinafter defined “normalized total lipids”, is expected, while the contrary occurs in the case of increased lipolysis.
The analytical protocol adopted to detect values of “normalized total lipids” is described below: • each subcutis sample was homogenized in 1 ml of isopropyl alcohol; • the sample was centrifuged at 14,000 G for 5 minutes and then the supernatant (containing the extracted lipids) was collected; • the supernatant was diluted 10 fold with isopropyl alcohol; • the diluted lipid extract was analysed with a Direct Detect IR Spectrometer (Millipore), which provided the total lipid concentration of the supernatant (mg/ml); • the total lipids of the subcutis sample was quantified multiplying the supernatant lipid concentration (indention 4) by the preliminary dilution factor (indention 3) and then by the volume of isopropyl alcohol used for the lipid extraction (indention 1); • the residual pellet obtained from indention 2 was washed with 1 ml of isopropyl alcohol and, after another centrifugation this solvent was withdrawn; • the pellet was dried in a vacuum dry evaporator and then homogenized in 100 ul of proteolytic buffer (20 mM Tris HCI pH 7.5, 150 mM NaCl, 2 mM EDTA, 0.5% Triton X-100, 2 mM DTT, 1% protease inhibitor cocktail); • the extractive mixture was centrifuged at 14,000 G for 10 minutes and the supernatant was collected and analysed with a Direct Detect IR Spectrometer (Millipore), which provided the total protein concentration of the supernatant (mg/ml); • the obtained total protein concentration was multiplied by the extractive volume (indention 7) in order to quantify the total proteins of the subcutis sample; • the total lipids (indention 5) were divided by the total proteins (indention 9) in order to obtain the amount of lipids per mg of proteins relative to the processed subcutis sample.

[2] = Table 1, scalp sample donor, 6 days culture, 5 μM

`COc1cc(CNC(=O)CCCC/C=C/C(C)C)ccc1O` [Capsaicin, reference compound] was tested, and the “reduction of sebum content of the hSGs in comparison with the control group” value ([1]; Examples 1 to 4 donor, positive control 5 μM) was 17%, the “reduction of hSGs sebum content in comparison with the control group” value ([1]; Examples 5 to 7 donor, positive control 5 μM) was 10% and the “response of sebum production versus control” value ([1]; Examples 22 to 25, positive control 5 μM) was −17%. For the same molecule, the “Sebum content in hSGs, % ratio of the control group performance (Average)” value (shortened to “Sebum content in hSGs, % ratio”) [1, 2] was 83.3%, the “Sebum content in hSGs, % ratio” value ([1]; Table 2, another donor, 5 μM) was 90.2% and the “Sebum content in hSGs, % ratio” value ([1]; Table 4, another donor, 5 μM) was 37.2%. The “Sebum content in hSGs, % ratio” value ([1]; Table 5, 5 μM) was 45.6%, the “Sebum content in hSGs, % ratio” value ([1]; Table 6, same donor, 5 μM) was 59.2% and the “Sebum content in hSGs, % ratio” value ([1]; Table 7, 5 μM) was 83.0%. For the same molecule, the “Total lipid content in skin subcutis samples, % ratio of the control group performance (Average)” value (human skin subcutis; 5 μM) was 73.6%.

In the case of `CCCCC(=O)O` [PA, pentanoic acid], the “Sebum content in hSGs, % ratio” value ([1]; Table 5, 0.2 mM) was 57.3%, the “Sebum content in hSGs, % ratio” value ([1]; Table 5, 2 mM) was 65.6% and the “Sebum content in hSGs, % ratio” value ([1]; Table 6, same donor, 0.02 mM) was 62.5%. The “Sebum content in hSGs, % ratio” value ([1]; Table 6, same donor, 0.2 mM) was 60.9%, the “Sebum content in hSGs, % ratio” value ([1]; Table 6, same donor, 2.0 mM) was 75.4% and the “Total lipid content in skin subcutis samples, % ratio of the control group performance (Average)” value (human skin subcutis; 0.2 μM) was 82.6%. For the same molecule, the “Total lipid content in skin subcutis samples, % ratio of the control group performance (Average)” value (human skin subcutis; 2.0 μM) was 91.6% and the “reduction in total lipid content of skin subcutis” value (human skin subcutis; concentration not given) was 17.8%.

For `CC1=C2[C@H](/C=C(\C)C(=O)O)CC[C@@H](C)[C@H]2CC1` [VA, valerenic acid], the “reduction of sebum content in the hSGs” value ([1]; Examples 1 to 4 donor, 0.5 μM) was 26%, the “concentration range producing sebogenesis inhibition (very effective)” value ([1]; Examples 5 to 7 donor) was 0.05 to 5 µM and the “reduction of sebogenesis (change versus control)” value ([1]; Examples 26 to 27, 0.5 μM) was −29%. The “Sebum content in hSGs, % ratio” value ([1]; Table 1, scalp sample donor, 6 days culture, 0.05 μM) was 98.9%, the “Sebum content in hSGs, % ratio” value ([1]; Table 1, scalp sample donor, 6 days culture, 0.5 μM) was 74.2% and the “Sebum content in hSGs, % ratio” value [1, 2] was 88.0%. The “Sebum content in hSGs, % ratio” value ([1]; Table 1, scalp sample donor, 6 days culture, 50 μM) was 88.6%, the “Sebum content in hSGs, % ratio” value ([1]; Table 2, another donor, 0.05 μM) was 85.6% and the “Sebum content in hSGs, % ratio” value ([1]; Table 2, another donor, 0.5 μM) was 61.2%. For the same molecule, the “Sebum content in hSGs, % ratio” value ([1]; Table 2, another donor, 5 μM) was 88.5%, the “Sebum content in hSGs, % ratio” value ([1]; Table 3, another donor, 0.05 μM) was 75.0% and the “Sebum content in hSGs, % ratio” value ([1]; Table 3, another donor, 0.5 μM) was 89.0%. For the same molecule, the “Sebum content in hSGs, % ratio” value ([1]; Table 4, another donor, 0.05 μM) was 54.1%, the “Sebum content in hSGs, % ratio” value ([1]; Table 4, another donor, 0.5 μM) was 63.9% and the “Sebum content in hSGs, % ratio” value ([1]; Table 6, same donor, 0.05 μM) was 41.4%. For the same molecule, the “Sebum content in hSGs, % ratio” value ([1]; Table 6, same donor, 0.5 μM) was 50.4%, the “Sebum content in hSGs, % ratio” value ([1]; Table 6, same donor, 5 μM) was 70.7% and the “Sebum content in hSGs, % ratio” value ([1]; Table 8, 0.5 μM) was 71.4%. For the same molecule, the “response of lipid content in the skin subcutis versus control” value (human skin subcutis; 5.0 μM) was −44.7%, the “Total lipid content in skin subcutis samples, % ratio of the control group performance (Average)” value (human skin subcutis; 0.5 μM) was 63.9% and the “Total lipid content in skin subcutis samples, % ratio of the control group performance (Average)” value (human skin subcutis; 5 μM) was 55.3%. The “Total lipid content in skin subcutis samples, % ratio of the control group performance (Average)” value (human skin subcutis; 50.0 μM) was 59.0%.
